Data: ChEMBL document CHEMBL4819031, “Sesquiterpenoids from the Aerial Parts of Salvia plebeia with Inhibitory Activities on Proprotein Convertase Subtilisin/Kexin Type 9 Expression” (J Nat Prod, 2021)
Calls of active or inactive are those of the source. No cut-off for these calls is given here.

Key:
[1] = tested on: HepG2; assay: Down regulation of PCSK9 mRNA expression in human HepG2 cells at 50 uM incubated for 24 hrs by SYBR green dye-based qRT-PCR analysis; assay type: functional, cell-based
[2] = Down regulation of PCSK9 mRNA expression in human HepG2 cells incubated for 24 hrs by SYBR green dye-based qRT-PCR analysis; assay type: functional, cell-based; details: HepG2, 24 h
[3] = tested on: HepG2; assay: Down regulation of PCSK9 protein expression in human HepG2 cells at 10 to 50 uM incubated for 24 hrs by Western blotting analysis; assay type: functional, cell-based; details: dose 10-50 µM
[4] = tested on: HepG2; assay: Up regulation of LDLR protein expression in human HepG2 cells at 10 to 50 uM incubated for 24 hrs by Western blotting analysis; assay type: functional, cell-based; details: dose 10-50 µM
[5] = molecular target: PCSK9/LDLR (Homo sapiens) (UniProt Q8NBP7+P01130); assay: Inhibition of PCSK9 (unknown origin) interaction with LDLR (unknown origin) by ELISA; assay type: protein assay
Chain of PCSK9/LDLR (Homo sapiens) (P01130 22-860 partner limits assumed): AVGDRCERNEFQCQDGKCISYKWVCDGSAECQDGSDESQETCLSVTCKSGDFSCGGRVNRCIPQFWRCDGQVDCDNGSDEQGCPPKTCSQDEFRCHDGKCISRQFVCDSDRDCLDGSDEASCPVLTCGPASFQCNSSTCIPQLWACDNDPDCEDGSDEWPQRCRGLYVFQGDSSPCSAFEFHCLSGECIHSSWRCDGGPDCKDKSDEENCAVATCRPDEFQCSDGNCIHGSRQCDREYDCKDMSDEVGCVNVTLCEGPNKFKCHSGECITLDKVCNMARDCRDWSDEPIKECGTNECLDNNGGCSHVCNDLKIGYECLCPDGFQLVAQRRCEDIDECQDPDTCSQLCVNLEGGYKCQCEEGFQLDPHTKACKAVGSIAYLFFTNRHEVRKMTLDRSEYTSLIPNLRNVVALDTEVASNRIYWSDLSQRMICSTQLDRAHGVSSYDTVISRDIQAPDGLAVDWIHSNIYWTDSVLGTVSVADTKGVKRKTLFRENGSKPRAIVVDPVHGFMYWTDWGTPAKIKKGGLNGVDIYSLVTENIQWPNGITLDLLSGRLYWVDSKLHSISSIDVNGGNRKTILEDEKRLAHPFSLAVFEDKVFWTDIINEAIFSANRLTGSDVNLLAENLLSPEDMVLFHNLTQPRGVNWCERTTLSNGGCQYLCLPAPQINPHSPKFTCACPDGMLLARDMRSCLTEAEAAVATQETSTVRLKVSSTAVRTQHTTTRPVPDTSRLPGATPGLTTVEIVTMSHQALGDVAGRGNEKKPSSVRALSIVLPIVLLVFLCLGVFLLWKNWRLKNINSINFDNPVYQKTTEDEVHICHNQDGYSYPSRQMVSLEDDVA
Chain of PCSK9/LDLR (Homo sapiens) (Q8NBP7 31-152 limits assumed): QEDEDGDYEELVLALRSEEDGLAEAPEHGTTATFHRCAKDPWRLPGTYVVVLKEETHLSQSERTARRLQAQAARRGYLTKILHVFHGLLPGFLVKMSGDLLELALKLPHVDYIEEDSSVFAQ
Chain of PCSK9/LDLR (Homo sapiens) (Q8NBP7 153-692 limits assumed): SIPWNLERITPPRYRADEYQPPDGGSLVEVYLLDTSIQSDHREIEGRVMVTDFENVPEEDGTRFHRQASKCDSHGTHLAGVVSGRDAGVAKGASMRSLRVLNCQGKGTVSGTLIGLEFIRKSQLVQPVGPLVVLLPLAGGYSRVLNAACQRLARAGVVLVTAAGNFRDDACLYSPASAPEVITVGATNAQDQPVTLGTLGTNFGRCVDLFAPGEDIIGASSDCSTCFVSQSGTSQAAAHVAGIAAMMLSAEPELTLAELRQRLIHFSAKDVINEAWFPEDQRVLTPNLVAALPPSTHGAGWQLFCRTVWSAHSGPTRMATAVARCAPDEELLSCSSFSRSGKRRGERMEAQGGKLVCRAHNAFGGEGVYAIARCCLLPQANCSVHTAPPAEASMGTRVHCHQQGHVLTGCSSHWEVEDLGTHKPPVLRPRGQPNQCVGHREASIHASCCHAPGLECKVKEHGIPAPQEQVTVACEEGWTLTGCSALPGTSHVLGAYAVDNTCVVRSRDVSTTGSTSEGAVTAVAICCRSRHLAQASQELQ

Row | inhibition [5] | SMILES | also measured
1 | inactive | COC(=O)[C@H](C)[C@H]1C[C@]2(O)C(C)=CC(=O)[C@H](OC(C)=O)[C@]2(C)CC1=O | –
2 | inactive | CC(=O)O[C@H]1C(=O)C=C(C)[C@H]2CC3=C(C)C(=O)O[C@]3(O)C[C@@]21C | –
3 | inactive | CO[C@]12C[C@@]3(C)[C@H](CC1=C(C)C(=O)O2)C(C)=CC(=O)[C@@H]3OC(C)=O | –
4 | inactive | CC1=CC(=O)[C@H](O)[C@@]2(C)C=C3OC(=O)C(C)=C3C[C@H]12 | –
5 | inactive | CC(=O)O[C@H]1C(=O)C=C(C)[C@H]2CC3=C(C)C(=O)OC3=C[C@@]21C | –
6 | inactive | COc1c(O)cc2oc(-c3ccc(O)cc3)cc(=O)c2c1O | –
7 | inactive | CO[C@@]12C[C@]3(C)[C@H](O)C[C@H](OC(C)=O)[C@H](C)[C@H]3CC1=C(C)C(=O)O2 | –
8 | inactive | CC(=O)O[C@H]1C[C@H](O)[C@]2(C)C[C@@H]3OC(=O)C(C)=C3C[C@H]2[C@@H]1C | –
9 | inactive | CC(=O)O[C@@H]1C(=O)C=C(C)[C@@H]2CC3=C(C)C(=O)O[C@@H]3C[C@@]12C | –

More lines, now with the values behind:

Row | SMILES | inhibition [5] | also measured
10 | CO[C@@H]1CC(=O)[C@H](C)[C@H]2C/C(=C(\C)C(=O)O)C[C@@]21C | inactive | Activity [1]: Active; IC50 [2]: 24.4 µM; Activity [3]: Active; Activity [4]: Active
11 | CC1=C2C[C@@H]3[C@@H](C)C(=O)C=C[C@@]3(C)C[C@@]2(O)OC1=O | inactive | Activity [1]: Active; IC50 [2]: 27.8 µM; Activity [3]: Active; Activity [4]: Active
12 | CC(=O)O[C@@H]1C(=O)C=C(C)[C@]2(O)C/C(=C(\C)C(=O)O)C(O)=C[C@]12C | inactive | –
13 | CC(=O)O[C@H]1C[C@@H](O)[C@@]2(C)C=C3OC(=O)C(C)=C3C[C@@H]2[C@H]1C | inactive | –
14 | CC1=C2C[C@@H]3[C@@H](C)[C@@H](O)C[C@@H](O)[C@@]3(C)C=C2OC1=O | inactive | –
15 | COc1ccc2cc3[n+](cc2c1OC)CCc1cc2c(cc1-3)OCO2 [BERBERINE CHLORIDE] | – | IC50 [2]: 13.8 µM
16 | CC(=O)O[C@H]1C[C@@H](O)[C@@]2(C)C[C@H](O)/C(=C(/C)C(=O)O)C[C@@H]2[C@H]1C | inactive | –
17 | COc1c(O)cc2c(c1O)C(=O)C[C@@H](c1ccc(O)cc1)O2 | inactive | –
18 | CO[C@]12C[C@@]3(C)[C@H](OC(C)=O)C(=O)C=C(C)[C@@H]3CC1=C(C)C(=O)O2 | inactive | Activity [1]: Active; IC50 [2]: 25.2 µM
19 | CC(=O)O[C@H]1C(=O)C=C(C)[C@H]2CC3=C(C)C(=O)O[C@@H]3C[C@@]21C | inactive | –
20 | CC(=O)O[C@H]1C[C@@H](O)[C@@]2(C)C[C@@]3(O)OC(=O)C(C)=C3C[C@@H]2[C@H]1C | inactive | –
